Data set [1] deals with Mycobacterium tuberculosis. The data set can be described thus: Antimicrobial activity against Mycobacterium tuberculosis H37Rv after 7 days by resazurin microtiter assay. It counts as functional. Particulars: 168 h. For orientation: Alamar Blue is a resazurin reagent that responds to reducing activity.
For another data set, the system named is HEK-293T. The data set can be described thus: Cytotoxicity against HEK293T cells after 72 hrs by MTT assay. It counts as cell-based. Particulars: Homo sapiens.
A short description of data set [2]: Selectivity index, ratio of IC50 for HEK293T cells to MIC for Mycobacterium tuberculosis H37Rv. It counts as toxicity. The settings on record: human, read-out: Selectivity Index.
The nature of data set [3]: Stability of the compound in DMSO-d6 solvent measured every 8 hrs for 12 days by 1H NMR spectra analysis. The class given is physicochemical. The settings on record: 288 h.
A short description of data set [4]: Stability of the compound in DMSO-d6 solvent/middlebrook 7H9 broth media after 16 hrs by 1H NMR spectra analysis. It counts as physicochemical.
The nature of data set [5]: Thermal stability of the compound in DMSO-d6 solvent at 37 degC by 1H NMR spectra analysis. The class given is physicochemical.
A short description of data set [6]: Solubility of the compound in MeOH. It counts as physicochemical.
A short description of data set [7]: Solubility of the compound in EtOH. It counts as physicochemical.
The nature of data set [8]: Solubility of the compound in CHCl3. It counts as physicochemical.
The nature of data set [9]: Solubility of the compound in H2O. The class given is physicochemical.

Usually MIC stands for the lowest concentration that inhibits growth of the organism. Higher therefore signals a need for much substance. By IC50 is commonly meant the concentration that inhibits the measured activity by half.

Values after ≈ are worked out from the molar mass of the structure shown. Where a name gives a salt, the structure may show the parent alone. A value given as a limit tells only on which side of the number the result lay.

As to `O=C(c1ccc(O)cc1)n1cc2c(=O)oc3ccccc3c2n1`, in data set [1], inhibition of growth (MIC) required 0.32 µM (≈ 0.098 µg/mL). This compound also showed a half-maximal inhibitory concentration (IC50) in the data set on HEK-293T of more than 200 µM. Further, the selectivity ratio in data set [2] was more than 625.
In data set [1], `NNC(=O)c1ccncc1` [ISONIAZID] returned a minimal inhibitory concentration (MIC) of 0.79 µM (≈ 0.108 µg/mL).
As to `CN(C)c1ccc(C(=O)n2cc3c(=O)oc4ccccc4c3n2)cc1`, the Stability entry in data set [3], in data set [4] and in data set [5] was “Stable” throughout. Moreover, the solubility result in data set [6], in data set [7], in data set [8] and in data set [9] was “Insoluble” each time. The same compound gave a minimum inhibitory concentration (MIC) in data set [1] of 0.59 µM (≈ 0.197 µg/mL). Further, the IC50 in the data set on HEK-293T was more than 200 µM. Besides, in [2], the selectivity ratio was more than 408.
With `O=C(N/N=C/c1c(Cl)c2ccccc2oc1=O)c1ccco1`, the Stability result in [3], in [4] and in data set [5] was “Stable” each time. Besides, the solubility entry in data set [6], in data set [7], in data set [8] and in data set [9] was “Insoluble” throughout. For the same compound, the minimum inhibitory concentration (MIC) in data set [1] was determined as 0.63 µM (≈ 0.2 µg/mL). It took 63.6 µM to reach half-maximal inhibition with HEK-293T (IC50). Moreover, the selectivity ratio in data set [2] is 236.
Consider `CN(C)c1ccc(C(=O)N/N=C/c2c(Cl)c3ccccc3oc2=O)cc1`, for which the Stability entry in data set [3], in data set [4] and in [5] was “Stable” throughout. The solubility result in data set [6], in data set [7], in data set [8] and in [9] was “Insoluble” each time. Also, the MIC in data set [1] was 0.54 µM (≈ 0.2 µg/mL). Also, in the data set on HEK-293T, the IC50 was determined as 18.7 µM. In addition, the selectivity ratio in [2] came to 20.
For the compound `O=C(c1ccco1)n1cc2c(=O)oc3ccccc3c2n1`, in [1], it took 0.72 µM (≈ 0.202 µg/mL) to inhibit growth (MIC). In addition, the concentration for half-maximal inhibition (IC50) in the data set on HEK-293T is more than 200 µM. In data set [2], the selectivity ratio is more than 282.
As to `COc1ccc(C(=O)N/N=C/c2c(Cl)c3ccccc3oc2=O)cc1`, the Stability result in data set [3], in data set [4] and in data set [5] was “Stable” each time. Also, the solubility result in [6], in data set [7], in data set [8] and in [9] was “Insoluble” throughout. This compound showed an MIC in [1] of 0.28 µM (≈ 0.0999 µg/mL). In addition, the IC50 in the data set with HEK-293T came out at 113 µM. Moreover, the selectivity ratio in [2] worked out at 403.
The compound `O=C(N/N=C/c1c(Cl)c2ccccc2oc1=O)c1ccc(O)cc1O` had an MIC in data set [1] of 0.56 µM (≈ 0.201 µg/mL).
`CC[C@@H](CO)NCCN[C@@H](CC)CO` [ETHAMBUTOL HYDROCHLORIDE]: the MIC in data set [1] turned out to be 1.46 µM.
In the case of `Cc1occc1C(=O)n1cc2c(=O)oc3ccccc3c2n1`, the minimal inhibitory concentration (MIC) in data set [1] was determined as 1.69 µM (≈ 0.497 µg/mL). The half-inhibitory concentration (IC50) in the data set with HEK-293T is more than 200 µM. For the same compound, in data set [2], the selectivity ratio was more than 119.
In the case of `O=C(c1ccc(O)cc1O)n1cc2c(=O)oc3ccccc3c2n1`, the Stability result in data set [3], in data set [4] and in data set [5] was “Stable” throughout. In addition, the solubility entry in data set [6], in [7], in data set [8] and in data set [9] was “Insoluble” throughout. In data set [1], this compound gave an MIC of 0.62 µM (≈ 0.2 µg/mL). For the same compound, the half-inhibitory concentration (IC50) in the data set on HEK-293T is more than 200 µM. Moreover, the selectivity ratio in [2] was more than 308.
Turning to `O=C(N/N=C/c1c(Cl)c2ccccc2oc1=O)c1ccc(Cl)cc1`, the Stability result in [3], in [4] and in [5] was “Stable” in each case. The solubility entry in data set [6], in data set [7], in data set [8] and in data set [9] was “Insoluble” each time. In data set [1], it took 0.55 µM (≈ 0.199 µg/mL) to inhibit growth (MIC). In addition, the half-inhibitory concentration (IC50) in the data set with HEK-293T is 21 µM. In [2], the selectivity ratio was found to be 33.
For `COc1ccc(C(=O)n2cc3c(=O)oc4ccccc4c3n2)cc1`, the Stability result in data set [3], in data set [4] and in data set [5] was “Stable” throughout. Further, the solubility result in data set [6], in data set [7], in data set [8] and in [9] was “Insoluble” in each case. This compound gave a minimal inhibitory concentration (MIC) in data set [1] of 0.62 µM (≈ 0.199 µg/mL). Also, the half-maximal inhibitory concentration (IC50) in the data set with HEK-293T was more than 200 µM. In addition, the selectivity ratio in data set [2] is more than 645.

These data come from ChEMBL document CHEMBL4033694, “Synthesis, antimycobacterial activity and docking study of 2-aroyl-[1]benzopyrano[4,3-c]pyrazol-4(1H)-one derivatives and related hydrazide-hydrazones” (Bioorg Med Chem Lett, 2017).
